Experimental data reported in US8901119B2, “Peptide deformylase inhibitors” (GlaxoSmithKline Intellectual Property (No. 2) Limited, priority 2011, dated 2014).
≈ marks a conversion by molar mass, not a printed value. Read-outs that look alike come from different tables or passages of the source.

Assays:
[1] = test system: Staphylococcus aureus Oxford; assay: Antimicrobial activity assay (broth microdilution MIC); format: cell-based; details: read-out: MIC, S. aureus Oxford
Description: (§1) Whole-cell antimicrobial activity was determined by broth microdilution using the Clinical and Laboratory Standards Institute (CLSI, formerly NCCLS) recommended methodology (NCCLS Document M7-A7, “Methods for Dilution Antimicrobial Susceptibility Tests for Bacteria that Grow Aerobically; Approved Standard—Seventh Edition”, 2006). Compounds were tested in serial two-fold dilutions ranging from 64 to 0.06 μg/mL against a panel of at least 11 strains. This panel consisted of the following laboratory strains: Staphylococcus aureus Oxford, Staphylococcus aureus WCUH29, Enterococcus faecalis I, Enterococcus faecalis 7 or Enterococcus faecalis X7501, Haemophilus influenzae Q1, Haemophilus influenzae NEMC1 or Haemophilus influenzae H128, Moraxella catarrhalis 1502, Streptococcus pneumoniae 1629, Streptococcus pneumoniae N1387, Streptococcus pneumoniae Ery2 and Escherichia coli 7623 or Escherichia coli 3. All compounds were also tested against Haemophilus influenzae H128 or Escherichia coli 7623 efflux minus mutants (strains in which the AcrA efflux pump had been deleted) to ascertain the extent in which the molecules were effluxed out of the bacteria. In addition, the antibacterial activity of some compounds against Streptococcus pyogenes 1307006P and Streptococcus pyogenes 1308007P was also analyzed. The minimum inhibitory concentration (MIC) was determined as the lowest concentration of compound that inhibited visible growth. A mirror reader was used to assist in determining the MIC endpoint.

[2] = test system: Haemophilus influenzae Q1; assay: as above; format: cell-based
Description: as §1

[3] = test system: Streptococcus pneumoniae 1629; assay: as above; format: cell-based; details: read-out: MIC, S. pneumoniae 1629
Description: as §1

[4] = test system: Streptococcus pyogenes 1308007P; assay: as above; format: cell-based; details: read-out: MIC, S. pyogenes 1308007P
Description: as §1

[5] = test system: Moraxella catarrhalis 1502; assay: as above; format: cell-based
Description: as §1

[6] = test system: Streptococcus pneumoniae N1387; assay: as above; format: cell-based; details: read-out: MIC, S. pneumoniae N1387
Description: as §1

[7] = test system: Enterococcus faecalis X7501; assay: as above; format: cell-based; details: read-out: MIC, E. faecalis X7501
Description: as §1

[8] = test system: Staphylococcus aureus WCUH29; assay: as above; format: cell-based; details: read-out: MIC, S. aureus WCUH29
Description: as §1

Enterococcus faecalis I = assay: as above; format: cell-based; details: read-out: MIC, E. faecalis I
Description: as §1

[9] = test system: Haemophilus influenzae H128; assay: as above; format: cell-based; details: read-out: MIC, H. influenzae H128
Description: as §1

Escherichia coli 3 = assay: as above; format: cell-based; details: read-out: MIC, E. coli 3
Description: as §1

[10] = test system: Streptococcus pneumoniae Ery2; assay: as above; format: cell-based; details: ERY2, read-out: MIC, S. pneumoniae ERY2
Description: as §1

[11] = biological target: T1, Streptococcus pneumoniae PDF (Streptococcus pneumoniae serotype 4, UniProt Q9F2F0); assay: PDF IC50 Assay 1 (FDH-coupled, absorbance 340 nm); format: biochemical; details: Assay 1 conditions; read-out: IC50, S. pneumoniae PDF activity
T1 sequence (Q9F2F0 1-203): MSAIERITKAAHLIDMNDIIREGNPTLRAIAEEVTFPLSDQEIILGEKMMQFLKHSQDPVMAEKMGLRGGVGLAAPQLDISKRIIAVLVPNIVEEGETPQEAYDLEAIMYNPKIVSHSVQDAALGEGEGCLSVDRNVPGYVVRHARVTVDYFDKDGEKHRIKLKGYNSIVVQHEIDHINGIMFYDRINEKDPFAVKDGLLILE
Description: (§2) Enzymatic activity of PDF was measured using a formate dehydrogenase (FDH)-coupled assay [Lazennec and Meinnel (1997) Anal. Biochem. 244, 180-182]. Once formate is released from methionine by PDF, it is oxidized by FDH thereby reducing one molecule of NAD to NADH and resulting in an increase in absorbance at 340 nm. Reactions were initiated by adding PDF to microtiter plates containing all other reaction components and were continuously monitored for 20 min at 25° C. The final reaction composition for the Staphylococcus aureus PDF (SaPDF) assay was 50 mM potassium phosphate, pH 7.6, 5 units/mL FDH, 7 mM NAD, 1% DMSO, 0.01% CHAPS, 1 nM SaPDF, and 3 mM formyl-Met-Ala-Ser in 40 μL total volume. Serial dilutions of inhibitors were performed in DMSO. Reagents and assay format were identical for Haemophilus influenzae PDF except that formyl-Met-Ala-Ser was 6 mM final. In the Streptococcus pneumoniae PDF assay, reaction conditions were similar but contained […] enzyme, 4 mM NAD and 4 mM formyl-Met-Ala-Ser. The varying formyl-Met-Ala-Ser concentrations reflect KM values for substrate using the different PDF isozymes. IC50s were determined by fitting to the equation: % Inhibition=100/1+(IC50/[l])^s, where s is a slope factor, l is the inhibitor concentration and the IC50 is the concentration of compound that causes 50% inhibition.

[12] = biological target: T2, Staphylococcus aureus PDF (SaPDF) (Staphylococcus aureus, UniProt P68826); assay: PDF IC50 Assay 1 (FDH-coupled, absorbance 340 nm); format: biochemical; details: Assay 1 conditions; read-out: IC50, S. aureus PDF activity
T2 sequence (P68826 1-183): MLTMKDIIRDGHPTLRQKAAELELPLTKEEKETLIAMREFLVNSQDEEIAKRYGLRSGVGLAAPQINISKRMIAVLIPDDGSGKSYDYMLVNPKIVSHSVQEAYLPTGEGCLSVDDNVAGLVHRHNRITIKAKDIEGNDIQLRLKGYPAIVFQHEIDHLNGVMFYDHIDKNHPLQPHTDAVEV
Description: as §2

[13] = biological target: T3, Haemophilus influenzae PDF (Haemophilus influenzae, UniProt P44786); assay: PDF IC50 Assay 1 (FDH-coupled, absorbance 340 nm); format: biochemical
Description: as §2

[14] = biological target: T1, Streptococcus pneumoniae PDF; assay: PDF IC50 Assay 2 (FDH/NAD+/Diaphorase-coupled fluorescence); format: biochemical; details: Assay 2 conditions; read-out: IC50, S. pneumoniae PDF activity
Description: (§3) Enzymatic activity of PDF was measured using a formate dehydrogenase (FDH)/NAD+/Diaphorase-coupled Fluorescence detection assay. Once formate is released from methionine by PDF, it is oxidized by FDH, thereby reducing one molecule of NAD to NADH. Diaphorase then catalyzes the conversion of Resazurin to Resarufin using the NADH produced by the FDH reaction. The fluorescence intensity of Resarufin is monitored by excitation at 525 nm and emission at 598 nm. The reaction is assembled by first adding the NAD, f-MAS and Resazurin to each well of a 384 well plate containing 50 nl of test compounds. Reactions were initiated by adding PDF in reaction buffer containing FDH and Diaphorase. The final reaction composition for the Staphylococcus aureus PDF (SaPDF) assay was 50 mM potassium phosphate, 0.025% CHAPS pH 7.6, 0.25 units/mL FDH, 0.156 μm! Diaphorase; 0.025 mg/ml BSA; 1 mM NAD, 0.5% DMSO, 1 mM formyl-Met-Ala-Ser; 5 uM Resazurin, and 1 nM SaPDF, in 10 μL total volume. Serial dilutions of inhibitors were performed in DMSO. Reagents and assay format were identical for the Haemophilus influenzae PDF; in the Streptococcus pneumoniae PDF assays, assay composition was the same, except that […] enzyme was used. The endpoint of each reaction was chosen to ensure that all data were collected within the linear range of catalysis. IC50s were determined by fitting to the equation: % Inhibition=100/1+(IC50/[l])^s, where s is a slope factor, l is the inhibitor concentration and the IC50 is the concentration of compound that causes 50% inhibition.

[15] = biological target: T2, Staphylococcus aureus PDF (SaPDF); assay: as above; format: biochemical; details: Assay 2 conditions; read-out: IC50, S. aureus PDF activity
Description: as §3

[16] = biological target: T3, Haemophilus influenzae PDF; assay: as above; format: biochemical
Description: as §3

[17] = Q1, broth microdilution, read-out: MIC, H. influenzae Q1

T3 sequence (P44786 whole entry): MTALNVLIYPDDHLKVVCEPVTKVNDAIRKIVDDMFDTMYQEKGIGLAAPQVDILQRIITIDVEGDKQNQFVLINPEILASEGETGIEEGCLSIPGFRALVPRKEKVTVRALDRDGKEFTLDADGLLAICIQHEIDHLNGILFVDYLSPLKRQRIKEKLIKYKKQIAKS

Row | Compound | MIC [1] | MIC [2, 17] | MIC [3] | MIC [4] | MIC [5] | MIC [6] | MIC [7] | MIC [8] | MIC (Enterococcus faecalis I) | MIC [9] | MIC (Escherichia coli 3) | MIC [10] | IC50 [11] | IC50 [12] | IC50 [13] | IC50 [14] | IC50 [15] | IC50 [16] | MIC ([2]; Q1, read-out: MIC, H. influenzae Q1)
1 | O=CN(O)C[C@@H](CC1CCCC1)C(=O)N1NCC[C@H]1C(=O)Nc1cccc[n+]1[O-] [Example 45, (3S)-2-((2R)-3-Cyclopentyl-2-{[formyl(hydroxy)amino]methyl}propanoyl)-N-(1-oxido-2-pyridinyl)-3-pyrazolidinecarboxamide] | 1 mg/L (≈ 2.47 µM) | 0.5 mg/L (≈ 1.23 µM) | 0.5 mg/L (≈ 1.23 µM) | 4 mg/L (≈ 9.87 µM) | ≤ 0.06 mg/L | 0.25 mg/L (≈ 0.617 µM) | 8 mg/L (≈ 19.7 µM) | 0.25 mg/L (≈ 0.617 µM) | 2 mg/L (≈ 4.93 µM) | 1 mg/L (≈ 2.47 µM) | 32 mg/L (≈ 78.9 µM) | 0.25 mg/L (≈ 0.617 µM) |  |  |  |  |  |  | 
2 | O=CN(O)C[C@@H](CC1CCCC1)C(=O)N1NCC[C@H]1C(=O)Nc1ccncn1 [Example 59, (3S)-2-((2R)-3-Cyclopentyl-2-{[formyl(hydroxy)amino]methyl}propanoyl)-N-4-pyrimidinyl-3-pyrazolidinecarboxamide] | 0.5 mg/L (≈ 1.28 µM) | 0.25 mg/L (≈ 0.64 µM) | 1 mg/L (≈ 2.56 µM) | 0.25 mg/L (≈ 0.64 µM) | ≤ 0.06 mg/L | 0.5 mg/L (≈ 1.28 µM) | 1 mg/L (≈ 2.56 µM) | ≤ 0.06 mg/L | 2 mg/L (≈ 5.12 µM) | 0.5 mg/L (≈ 1.28 µM) | 16 mg/L (≈ 41 µM) | 0.25 mg/L (≈ 0.64 µM) | ≤ 1 µM | ≤ 1 µM | ≤ 1 µM |  |  |  | 
3 | CN(C)CCOc1nccc(NC(=O)[C@@H]2CCNN2C(=O)[C@H](CC2CCCC2)CN(O)C=O)n1 [Example 81, (3S)-2-((2R)-3-Cyclopentyl-2-{[formyl(hydroxy)amino]methyl}propanoyl)-N-(2-{[2-(dimethylamino)ethyl]oxy}-4-pyrimidinyl)-3-pyrazolidinecarboxamide] |  |  |  |  |  |  |  |  |  |  |  |  |  |  |  | ≤ 1 µM | ≤ 1 µM | ≤ 1 µM | 
4 | O=CN(O)C[C@@H](CC1CCCC1)C(=O)N1NCC[C@H]1C(=O)Nc1ncccn1 [Example 84, (3S)-2-((2R)-3-Cyclopentyl-2-{[formyl(hydroxy)amino]methyl}propanoyl)-N-2-pyrimidinyl-3-pyrazolidinecarboxamide] | 0.5 mg/L (≈ 1.28 µM) |  | 1 mg/L (≈ 2.56 µM) | 0.5 mg/L (≈ 1.28 µM) | ≤ 0.06 mg/L | 1 mg/L (≈ 2.56 µM) | 16 mg/L (≈ 41 µM) | 0.125 mg/L (≈ 0.32 µM) | 8 mg/L (≈ 20.5 µM) | 0.5 mg/L (≈ 1.28 µM) | 16 mg/L (≈ 41 µM) | 1 mg/L (≈ 2.56 µM) |  |  |  | ≤ 1 µM | ≤ 1 µM | ≤ 1 µM | 0.125 mg/L (≈ 0.32 µM)
5 | CN(C)Cc1nccc(NC(=O)[C@@H]2CCNN2C(=O)[C@H](CC2CCCC2)CN(O)C=O)n1 [Example 91, (3S)-2-((2R)-3-Cyclopentyl-2-{[formyl(hydroxy)amino]methyl}propanoyl)-N-{2-[(dimethylamino)methyl]-4-pyrimidinyl}-3-pyrazolidinecarboxamide] | 4 mg/L (≈ 8.94 µM) | 0.5 mg/L (≈ 1.12 µM) | 2 mg/L (≈ 4.47 µM) | 1 mg/L (≈ 2.23 µM) | ≤ 0.06 mg/L | 0.5 mg/L (≈ 1.12 µM) | 16 mg/L (≈ 35.8 µM) | 1 mg/L (≈ 2.23 µM) | 16 mg/L (≈ 35.8 µM) | 0.5 mg/L (≈ 1.12 µM) | 4 mg/L (≈ 8.94 µM) | 1 mg/L (≈ 2.23 µM) |  |  |  |  |  |  | 
6 | O=CN(O)C[C@@H](CC1CCCC1)C(=O)N1N=CC[C@H]1C(=O)Nc1ccncn1 [Example 92, (5S)-1-((2R)-3-Cyclopentyl-2-{[formyl(hydroxy)amino]methyl}propanoyl)-N-4-pyrimidinyl-4,5-dihydro-1H-pyrazole-5-carboxamide] | 0.25 mg/L (≈ 0.644 µM) | 0.5 mg/L (≈ 1.29 µM) | 0.5 mg/L (≈ 1.29 µM) | 0.5 mg/L (≈ 1.29 µM) | ≤ 0.06 mg/L | 0.125 mg/L (≈ 0.322 µM) | 1 mg/L (≈ 2.57 µM) | 0.125 mg/L (≈ 0.322 µM) | 1 mg/L (≈ 2.57 µM) | 0.5 mg/L (≈ 1.29 µM) | 16 mg/L (≈ 41.2 µM) | 0.25 mg/L (≈ 0.644 µM) |  |  |  |  |  |  | 
7 | CCCCC[C@H](CN(O)C=O)C(=O)N1NCC[C@H]1C(=O)Nc1ccc(F)cn1 [Example 100, (3S)—N-(5-Fluoro-2-pyridinyl)-2-((2R)-2-{[formyl(hydroxy)amino]methyl}heptanoyl)-3-pyrazolidinecarboxamide] |  |  |  |  |  |  |  |  |  |  |  |  | ≤ 1 µM | ≤ 1 µM | ≤ 1 µM |  |  |  | 
8 | CCCCC[C@H](CN(O)C=O)C(=O)N1NCC[C@H]1C(=O)Nc1ccncn1 [Example 101, (3S)-2-((2R)-2-{[Formyl(hydroxy)amino]methyl}heptanoyl)-N-4-pyrimidinyl-3-pyrazolidinecarboxamide] |  |  |  |  |  |  |  |  |  |  |  |  |  |  |  | ≤ 1 µM | ≤ 1 µM | ≤ 1 µM | 
9 | O=CN(O)C[C@@H](CC1CCCC1)C(=O)N1NCC[C@H]1C(=O)Nc1ccc(O)cc1 [Example 123, (3S)-2-((2R)-3-Cyclopentyl-2-{[formyl(hydroxy)amino]methyl}propanoyl)-N-(4-hydroxyphenyl)-3-pyrazolidinecarboxamide] |  |  |  |  |  |  |  |  |  |  |  |  |  |  |  | ≤ 1 µM | ≤ 1 µM | ≤ 1 µM | 
